The text below walks through data of ChEMBL document CHEMBL2029279, “Structure-activity relationships and molecular modeling of the N-(3-pivaloyloxy-2-benzylpropyl)-N'-[4-(methylsulfonylamino)benzyl] thiourea template for TRPV1 antagonism” (Bioorg Med Chem Lett, 2012).

Each structure is given as a SMILES string. Active and inactive are the calls of the source. No cut-off for these calls is given here.

Test [1] addresses T1, Transient receptor potential cation channel subfamily V member 1 (Rattus norvegicus, UniProt O35433). The test is described as follows: Displacement of [3H]RTX from rat TRPV1 expressed in CHO cells. Format: cell-based.
The target in test [2] is Transient receptor potential cation channel subfamily V member 1 (Rattus norvegicus) (UniProt O35433). The test is described as follows: Agonist activity at rat TRPV1 expressed in CHO cells assessed as induction of 45Ca2+ uptake at 30 uM relative to capsaicin. The format is functional, cell-based.
Chain of Transient receptor potential cation channel subfamily V member 1 (Rattus norvegicus) (O35433 whole entry): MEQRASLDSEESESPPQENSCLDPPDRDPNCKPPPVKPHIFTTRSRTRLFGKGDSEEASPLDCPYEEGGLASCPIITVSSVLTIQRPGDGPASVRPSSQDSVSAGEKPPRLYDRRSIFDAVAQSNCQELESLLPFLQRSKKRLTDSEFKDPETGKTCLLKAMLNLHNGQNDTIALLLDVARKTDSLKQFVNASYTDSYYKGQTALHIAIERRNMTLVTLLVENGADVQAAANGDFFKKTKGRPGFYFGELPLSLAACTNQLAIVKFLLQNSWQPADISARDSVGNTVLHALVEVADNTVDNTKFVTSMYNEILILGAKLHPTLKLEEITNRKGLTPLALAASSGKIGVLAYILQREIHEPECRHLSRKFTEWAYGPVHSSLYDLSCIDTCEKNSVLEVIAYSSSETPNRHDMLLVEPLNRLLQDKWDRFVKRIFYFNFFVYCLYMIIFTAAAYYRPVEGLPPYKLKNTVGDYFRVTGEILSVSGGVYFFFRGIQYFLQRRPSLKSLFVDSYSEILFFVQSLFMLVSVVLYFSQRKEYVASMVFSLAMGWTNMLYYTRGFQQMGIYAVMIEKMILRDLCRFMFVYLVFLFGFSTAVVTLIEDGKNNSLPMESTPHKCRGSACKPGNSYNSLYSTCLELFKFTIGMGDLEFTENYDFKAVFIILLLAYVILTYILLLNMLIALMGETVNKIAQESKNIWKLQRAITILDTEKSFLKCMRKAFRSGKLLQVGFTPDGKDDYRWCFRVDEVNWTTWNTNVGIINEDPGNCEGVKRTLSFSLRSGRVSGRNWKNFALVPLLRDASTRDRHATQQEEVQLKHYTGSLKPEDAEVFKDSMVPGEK
Test [3] addresses T1, Transient receptor potential cation channel subfamily V member 1. The test is described as follows: Antagonist activity at rat TRPV1 expressed in CHO cells assessed as inhibition of 45Ca2+ uptake. Format: functional, cell-based.
Test [4] concerns the target Transient receptor potential cation channel subfamily V member 1 (Rattus norvegicus) (UniProt O35433). The test is described as follows: Antagonist activity at rat TRPV1 expressed in CHO cells assessed as inhibition of 45Ca2+ uptake relative to control. The arrangement: scale not given: the % may be the effect or the level left. The format is functional, cell-based.

T1 sequence (O35433 whole entry): as above

In the case of `CC(C)(C)C(=O)OCC(NC(=S)NCc1ccc(NS(C)(=O)=O)cc1)c1ccc(C(C)(C)C)cc1` (stereo unspecified), the Ki in test [1] is 0.197 µM; in test [3], 0.94 µM. The Activity in test [2] and in test [4] was 46% each time.

For `CC(C)(C)C(=O)OCC(C/N=C(\S)NCc1ccc(NS(C)(=O)=O)cc1)Cc1ccc(C(C)(C)C)cc1` (stereo unspecified), the Activity in test [2] turned out to be 40%.

As for `Cc1ccc(CCC(COC(=O)C(C)(C)C)NC(=S)NCc2ccc(NS(C)(=O)=O)cc2)cc1C` (stereo unspecified), the Ki in test [1] worked out at 0.39 µM; in test [3], 0.0337 µM. Besides, the Activity in test [2] is 5%.

In the case of `CC(C)(C)C(=O)OCC(CNC(=S)NCc1ccc(NS(C)(=O)=O)cc1)c1ccc(C(C)(C)C)cc1` (stereo unspecified), the results for the Ki in test [1] and in test [3] were 0.143 µM and 0.091 µM, respectively. For the same molecule, the outcome in test [2] was inactive.

For the molecule `Cc1ccc(CC(COC(=O)C(C)(C)C)NC(=S)NCc2ccc(NS(C)(=O)=O)c(F)c2)cc1C` (stereo unspecified), the Ki came out at 0.233 µM in test [1] and 0.65 µM in test [3]. Besides, the result in test [2] was inactive.

Turning to `Cc1ccc(CCC(COC(=O)C(C)(C)C)NC(=S)NCc2ccc(NS(C)(=O)=O)c(F)c2)cc1C` (stereo unspecified), the Ki in test [1] was 0.12 µM; in test [3], 0.111 µM. In addition, the outcome in test [2] was inactive.

In the case of `Cc1ccc(CC(COC(=O)C(C)(C)C)NC(=S)NCc2ccc(NS(C)(=O)=O)cc2)cc1C` (stereo unspecified), the Ki in test [1] came out at 0.58 µM. Also, the Activity was 19% in test [2] and 48% in test [4].

As for `CC(C)(C)C(=O)OCC(NC(=S)NCc1ccc(NS(C)(=O)=O)c(F)c1)c1ccc(C(C)(C)C)cc1` (stereo unspecified), the inhibitory constant (Ki) came out at 0.244 µM in test [1] and 0.213 µM in test [3]. For the same molecule, the values for the Activity in test [2] and in test [4] were 35% and 72%, respectively.

In the case of `CC(C)(C)C(=O)OCC(CCc1ccc(C(C)(C)C)cc1)NC(=S)NCc1ccc(NS(C)(=O)=O)cc1` (stereo unspecified), the Ki was found to be 0.366 µM in test [1] and 0.286 µM in test [3]. Further, in test [2], the result was inactive.

`CC(C)(C)C(=O)OCC(Cc1ccc(C(C)(C)C)cc1)NC(=S)NCc1ccc(NS(C)(=O)=O)cc1` (stereo unspecified): in test [1], the Ki is 0.416 µM. Also, the values for the Activity in test [2] and in test [4] were 8% and 31%, respectively.

Regarding `CC(C)(C)C(=O)OCC(CNC(=S)NCc1ccc(NS(C)(=O)=O)c(F)c1)c1ccc(C(C)(C)C)cc1` (stereo unspecified), the values for the Ki in test [1] and in test [3] were 0.069 µM and 0.116 µM, respectively. Besides, the result in test [2] was inactive.

For the molecule `Cc1ccc(CC(CN/C(S)=N/Cc2ccc(NS(C)(=O)=O)cc2)COC(=O)C(C)(C)C)cc1C` (stereo unspecified), in test [2], the Activity was determined as 15%.

With `CC(C)(C)C(=O)OCC(CCc1ccc(C(C)(C)C)cc1)NC(=S)NCc1ccc(NS(C)(=O)=O)c(F)c1` (stereo unspecified), the Ki worked out at 0.19 µM in test [1] and 0.152 µM in test [3]. In addition, in test [2], the result was inactive.

On to `CC(C)(C)C(=O)OCC(Cc1ccc(C(C)(C)C)cc1)NC(=S)NCc1ccc(NS(C)(=O)=O)c(F)c1` (stereo unspecified), for which the figures for the Ki in test [1] and in test [3] were 0.115 µM and 0.179 µM, respectively. For the same molecule, the outcome in test [2] was inactive.

For the molecule `Cc1ccc(CC(CNC(=S)NCc2ccc(NS(C)(=O)=O)c(F)c2)COC(=O)C(C)(C)C)cc1C` (stereo unspecified), in test [2], the result was inactive.
